Reference: patent US20200384188A1, “SYSTEMS, DEVICES, FORMULATIONS AND METHODS FOR CONTROLLED DRUG DELIVERY” (priority 2017, published 2020)
Several values for one entry are separate records, joined by “and”; a condition that tells them apart may be missing. Identical values can stand only once.

Legend:
[1] = test system: male Sprague-Dawley rats; details: rat, in vivo
[2] = test system: rats (Group 1 Sprague-Dawley, Group 4 Han Wister); assay: Randall-Selitto test (Brewers Yeast-inflamed hind paw, analgesy meter); format: in vivo, rat; details: for Force (g) applied to the inflamed (right) paw, individual animals / Force (g) applied to the inflamed (right) paw, mean / % change from baseline, force on inflamed (right) paw / % change from baseline, force on untreated (left) paw / Force (g) applied, Left paw, individual animals / Force (g) applied, Right Paw (inflamed), individual animals / Force (g) applied to the untreated (left) paw, mean: 50 mg/kg sc; for Force (g) applied to the inflamed (right) paw, individual animals: animals R0001-R0006; for Force (g) applied to the inflamed (right) paw, individual animals / Force (g) applied, Left paw, individual animals / Force (g) applied, Right Paw (inflamed), individual animals: 50 mg/kg
Excerpt: The Randall Selitto test is a tool to assess the response thresholds to mechanical pressure stimulation following induction of a hyperalgesic state by injection of an inflammatory agent and is considered a measure of mechanical hyperalgesia (Randall and Selitto, 1957). This involves application of an increasing force to the surface of the paw until withdrawal or vocalization occurs. The test can produce results similar to decreases on pressure pain thresholds observed in clinical conditions, such as fibromyalgia, myofascial pain, or osteoarthritis (Arendt-Nielsen et al., 2010; Bennett, 2007; Finan et al., 2013; Hsu et al., 2010). Centrally and peripherally acting effects can be detected using this model, for example, opioids increase the mechanical threshold to the normal and inflamed paw, whereas nonsteroidal anti-inflammatory drugs are only effective in the inflamed paw.
Eighteen male Sprague-Dawley rats were obtained from Charles River, Margate, United Kingdom, and were used for dosing. Animals weighed between 319 and 419 g on the day of dosing. Eight male Han Wister rats were obtained from Charles River, Margate, United Kingdom and used for Group 4. Animals weighed between 381 and 504 g on the day of dosing. The animals were assessed according to Table 1.
Animals were dosed subcutaneously via a motorized insulin pump.
The threshold of a pain response to increasing pressure was measured using an analgesy meter (Ugo Basile, Italy). The animal was gently held by a competent operator, and the hind paw of the animal was positioned over a convex surface (a cone-shaped pusher). A gradually increasing pressure (g) was applied to the upper surface of the paw. The force was continuously monitored by a pointer moving along a linear scale and was stopped by depression of a foot pedal when the animal struggled. A cut-off value of 300 g was adopted (based on available literature and experience).
Pre-dose Phase: The pressure pain threshold of each animal was tested on two occasions (once in the morning and once in the afternoon). This allowed animals to acclimate to the procedure.
(§1) Day of Dosing: On the day of dosing, each animal was administered a 0.1 mL 20% suspension of Brewers Yeast subcutaneously into the sub-plantar of the right hind paw at approximately 180 minutes prior to ketamine administration. Immediately prior to ketamine administration (Group 4), 15 and 30 minutes and 1, 2, and 4 hours post administration of ketamine, each animal was assessed for a response to increasing pressure on both hind paws (Group 1 used right hind paw, Group 4 used both hind paws), using the analgesy meter. Signs of anesthesia were recorded.

[3] = test system: rats; assay: Signs of anesthesia recorded during the rat pain tests; format: in vivo; details: 50 mg/kg sc via insulin pump
Description: Signs of anesthesia were recorded.
as §1

[4] = Minipig pharmacokinetics study (BB-1802), single subcutaneous infusion via insulin pump, plasma LC-MS/MS; details: for half-life / Tmax: Gottingen, minipig, plasma, sc; for Tmax: mean Tmax
Description: The purpose of this study was to determine the pharmacokinetics of ketamine after a single subcutaneous infusion dose to minipigs.
Dose Administration: In each phase, animals received a single subcutaneous infusion (up to 18 hours) via insulin pump (Medtronic MiniMed Paradigm® Insulin Pump). The infusion pump was programmed in accordance with a Study Specific Procedure, and the infusion was continuously monitored for the duration of the dose. […] The pump was inspected, re-secured to the animal, and the dose continued.
For each phase, blood (approximately 2 mL) was collected via jugular vein catheter into tubes containing K3EDTA from each animal predose and at approximately 0.083, 0.25, 0.5, 1, 2, 4, 8, 9 (Phases 1 through 3 only), 10 (Phases lthrough 3 only), 12, 15 (Phases 4 and 5 only), 18 (Phases 4 and 5 only), 20 (Phases 4 and 5 only), 22 (Phases 4 and 5 only), and 24 hours postdose, with the following exceptions in Phase 3 for Animal 50004 (Group 1 male). […] Times were based on the start of the infusion.
Plasma samples were analyzed for concentrations of ketamine using an established liquid chromatography/mass spectrometry (LC-MS/MS) method.
Noncompartmental analysis (1) was applied to the individual plasma ketamine concentration data for males and females. The following parameters were estimated whenever possible:
Nominal doses and sampling times were used. […] Embedded zeros were excluded from pharmacokinetic analysis.

[5] = test system: Gottingen Minipigs; assay: Minipig animal observations and necropsy; format: in vivo, Gottingen Minipig; details: Animals S0001 and S0004, Group 1 males
Excerpt: All animals appeared healthy prior to dosing and throughout the duration of the study, with the following observations noted.

[6] = test system: rats; details: 50 mg/kg; cited from earlier work

## CNC1(c2ccccc2Cl)CCCCC1=O (centres unmarked) [ketamine]
[1]
  Time (s) taken for response, individual animals: 4.2 s (2×) and 5.2 s (3×) and 5.9 s and 5.1 s and 7.7 s and 6.2 s (2×) and 4.4 s and 7.0 s and 7.5 s and 5.5 s and 6.4 s (2×) and 7.4 s (3×) and 6.5 s (2×) and 3.5 s and 5.8 s (3×) and 4.3 s and 4.9 s and 6.1 s and 5.7 s and 7.6 s
  Time (s) taken for response, mean: 5.6 s and 5.9 s and 6.3 s
  group mean reaction time (longest): 6.3 s
  group mean reaction time (shortest): 5.6 s
  latency of tail flick, in words: slight increase in latency of tail flick at all post-dose time points
  magnitude of the increase in time taken for pain to be perceived: 1.1 s
  maximum effect, increase in time to tail flick: 21.4%
[2]; Group 1, 0.25 h
  Force (g) applied to the inflamed (right) paw, individual animals: 90 g (2×) and 20 g and 40 g (2×) and 120 g
[2]; Group 1, 0.25 h, n=6
  Force (g) applied to the inflamed (right) paw, mean: 153.3 g
[2]; Group 1, 0.5 h
  Force (g) applied to the inflamed (right) paw, individual animals: 100 g and 130 g and 80 g and 170 g and 120 g and 40 g
[2]; Group 1, 0.5 h, n=6
  Force (g) applied to the inflamed (right) paw, mean: 66.7 g
[2]; Group 1, 1 h
  Force (g) applied to the inflamed (right) paw, individual animals: 130 g and 120 g (2×) and 80 g (2×) and 60 g
[2]; Group 1, 1 h, n=6
  Force (g) applied to the inflamed (right) paw, mean: 106.7 g
[2]; Group 1, 2 h
  Force (g) applied to the inflamed (right) paw, individual animals: 60 g and 110 g and 50 g and 200 g and 120 g and 140 g
[2]; Group 1, 2 h, n=6
  Force (g) applied to the inflamed (right) paw, mean: 98.3 g
[2]; Group 1, 4 h
  Force (g) applied to the inflamed (right) paw, individual animals: 120 g (2×) and 110 g and 140 g and 90 g (2×)
[2]; Group 1, 4 h, n=6
  Force (g) applied to the inflamed (right) paw, mean: 113.3 g
[2]; Group 1, 0.5 to 2 hours post-dose versus the 15 minute time point, majority of animals
  pressure required to initiate a response, in words: increase in pressure required to initiate a response
[2]; Group 4, 0.25 h
  % change from baseline, force on inflamed (right) paw: −5.7%
  % change from baseline, force on untreated (left) paw: −17.0%
  Force (g) applied, Left paw, individual animals: 60 g and 100 g and 180 g and 90 g and 80 g and 130 g and 110 g and 30 g
  Force (g) applied, Right Paw (inflamed), individual animals: 10 g and 30 g and 80 g and 50 g and 40 g and 60 g (2×) and 0 g
[2]; Group 4, 0.25 h, n=8
  Force (g) applied to the inflamed (right) paw, mean: 41.3 g
  Force (g) applied to the untreated (left) paw, mean: 97.5 g
[2]; Group 4, 0.5 h
  % change from baseline, force on inflamed (right) paw: 34.3%
  % change from baseline, force on untreated (left) paw: −9.6%
  Force (g) applied, Left paw, individual animals: 120 g (2×) and 130 g (2×) and 150 g and 90 g and 70 g and 40 g
  Force (g) applied, Right Paw (inflamed), individual animals: 40 g (2×) and 50 g and 80 g and 90 g and 70 g and 100 g and 0 g
[2]; Group 4, 0.5 h, n=8
  Force (g) applied to the inflamed (right) paw, mean: 58.8 g
  Force (g) applied to the untreated (left) paw, mean: 106.3 g
[2]; Group 4, 1 h
  % change from baseline, force on inflamed (right) paw: 65.7%
  % change from baseline, force on untreated (left) paw: −10.6%
  Force (g) applied, Left paw, individual animals: 80 g (3×) and 160 g and 100 g (2×) and 200 g and 40 g
  Force (g) applied, Right Paw (inflamed), individual animals: 80 g and 60 g and 140 g and 40 g and 70 g (2×) and 90 g and 30 g
[2]; Group 4, 1 h, n=8
  Force (g) applied to the inflamed (right) paw, mean: 72.5 g
  Force (g) applied to the untreated (left) paw, mean: 105.0 g
[2]; Group 4, 2 h
  % change from baseline, force on inflamed (right) paw: 165.7%
  % change from baseline, force on untreated (left) paw: −24.5%
  Force (g) applied, Left paw, individual animals: 100 g (2×) and 70 g and 130 g and 80 g (2×) and 90 g and 60 g
  Force (g) applied, Right Paw (inflamed), individual animals: 180 g and 80 g (2×) and 240 g and 70 g (2×) and 120 g and 90 g
[2]; Group 4, 2 h, n=8
  Force (g) applied to the inflamed (right) paw, mean: 116.3 g
  Force (g) applied to the untreated (left) paw, mean: 88.8 g
[2]; Group 4, 4 h
  % change from baseline, force on inflamed (right) paw: 38.45%
  % change from baseline, force on untreated (left) paw: 14.9%
  Force (g) applied, Left paw, individual animals: 130 g (2×) and 110 g (3×) and 220 g and 90 g and 180 g
  Force (g) applied, Right Paw (inflamed), individual animals: 60 g and 90 g and 170 g and 100 g (2×) and 80 g and 150 g and 70 g
[2]; Group 4, 4 h, n=8
  Force (g) applied to the inflamed (right) paw, mean: 102.5 g
  Force (g) applied to the untreated (left) paw, mean: 135.0 g
[2]; Group 4, 15 minutes post-dose
  pressure required in the treated (right) paw at 15 minutes post-dose, in words: slight decrease
[2]; Group 4, between 0.5 and 2 hours post-dose compared to pre-dose, time dependent
  pressure required to initiate a response in the treated (right) paw, in words: increase in pressure required to initiate a response
[2]; Group 4, throughout the data collection
  force applied to the untreated (left) paw, in words: remained comparable to pre-dose
[3]
  Signs of anesthesia: reduced righting reflex, body tone, and ataxia up to 1 hour post-dose
[4]; 8 mg/kg
  half-life: 5.76 h
[4]; 12 mg/kg
  half-life: 5 h
[4]; 18 mg/kg
  half-life: 3.12 h
[4]; Phase 1
  mean concentration values measurable through (post the start of infusion): 12 h
[4]; Phase 5: 18 mg/kg, 1 mg/kg/hr, 18-hour SC infusion
  mean Css: 700 ng/mL
[4]; Phases 1 through 4
  steady-state, in words: did not appear to reach a steady-state
[4]; Phases 3 through 5
  mean concentration values measurable through (post the start of infusion): 24 h
[4]; all animals
  time to detectible plasma ketamine levels after initiating subcutaneous infusion: ≤ 5 min
[4]; dose level from 4 to 18 mg/kg
  exposure to ketamine against dose level: generally increased with the increase in dose level
[4]; female, 18 mg/kg, Phases 4 and 5: 18 mg/kg, 1 mg/kg/hr, 18-hour SC infusion, female
  Tmax: 13.5 h
[4]; male, 8 mg/kg, Phase 2: 8 mg/kg, 1 mg/kg/hr, 8-hour SC infusion, males
  Tmax: 4.5 h
[4]; male, 12 mg/kg, Phase 3: 12 mg/kg, 1.5 mg/kg/hr, 8-hour SC infusion, males
  Tmax: 2.04 h
[4]; males, dose level from 4 to 8 mg/kg
  dose proportionality of the increases in mean Cmax and AUC0-24: less than dose proportional
[4]; males, dose level from 8 to 12 mg/kg
  dose proportionality of the increases in mean Cmax and AUC0-24: greater than dose proportional
[5]
  relation of adverse effects (euthanized animals, necropsy) to the test article: not test article related
[6]
  relief of evoked pain 24 hours after administration: no relief of evoked pain
